{"source": "patent US11622956B1", "about": "“Compound and method for treating diseases and disorders” (priority 2019, dated 2023)", "origin": "cited, not measured here", "key": {"static ataxia": {"tested_on": "static ataxia", "details": "dogs, IV"}, "joint pain": {"tested_on": "joint pain", "details": "dogs"}, "ataxia": {"tested_on": "ataxia", "details": "high levels of hemp-derived CBD"}, "[1]": {"details": "oral"}}}
{"compound": "CCCCCc1cc(O)c2c(c1)OC(C)(C)[C@@H]1CCC(C)=C[C@@H]21", "note": "[THC, tetrahydrocannabinol]", "values": [{"measurement": "dose producing static ataxia", "setting": "static ataxia", "result": "> 0.5", "unit": "mg/kg"}]}
{"compound": "COc1cccc(C2(O)CCCCC2CN(C)C)c1", "note": "(centres unmarked) [tramadol, Tramadol]", "values": [{"measurement": "peak vertical force or vertical impulse versus placebo", "setting": "joint pain", "result": "no improvement"}]}
{"compound": "C=C(C)[C@@H]1CCC(C)=C[C@H]1c1c(O)cc(CCCCC)cc1O", "note": "[CBD, Cannabidiol]", "values": [{"measurement": "dogs with ataxia", "setting": "ataxia", "result": "2 of the 10"}, {"measurement": "fraction of orally administered CBD ultimately absorbed, at best", "setting": "[1]", "result": "15-20%"}, {"measurement": "fraction of orally administered CBD ultimately absorbed, on average", "setting": "[1]", "result": "5-10%"}]}
